Experimental data from patent US20180071238A1, “Compositions and Methods for Traumatized Tissues Using Zinc Chelators” (Ohio University, priority 2015, published 2018).

Assay: Zinc dissolution and precipitation in solutions of different pH (naked eye and microscope)
Type: physicochemical
Conditions: FIGS. 7A-7C
Procedure: Zinc dissolution in acidic solution and zinc precipitation or crystallization in neutral or basic solution is shown in the photographs in FIGS. 7A-7C. The tests were carried out by the application of zinc into solutions.

[Zn+2] [zinc]
solubility of zinc in solution (acidic conditions): generally soluble | solubility of zinc in solution (neutral and basic conditions): tends to crystallize or precipitate
